Experiments:
[1] = biological target: Non-receptor tyrosine-protein kinase TYK2 (Homo sapiens) (UniProt P29597); conditions: Compound concentration 1000.0 nM
[2] = biological target: Ribosomal protein S6 kinase alpha-2 (Homo sapiens) (UniProt Q15349); conditions: Compound concentration 1000.0 nM
[3] = biological target: Cyclin-dependent kinase 9 (Homo sapiens) (UniProt P50750); conditions: Compound concentration 1000.0 nM
[4] = biological target: Atypical kinase COQ8B, mitochondrial (Homo sapiens) (UniProt Q96D53); conditions: Compound concentration 1000.0 nM
[5] = biological target: Serine/threonine-protein kinase Nek1 (Homo sapiens) (UniProt Q96PY6); conditions: Compound concentration 1000.0 nM
[6] = biological target: Myosin-IIIb (Homo sapiens) (UniProt Q8WXR4); conditions: Compound concentration 1000.0 nM
[7] = biological target: Calcium/calmodulin-dependent protein kinase type II subunit delta (Homo sapiens) (UniProt Q13557); conditions: Compound concentration 1000.0 nM
[8] = biological target: Activin receptor type-1-like (Homo sapiens) (UniProt P37023); conditions: Compound concentration 1000.0 nM
[9] = biological target: Casein kinase I isoform gamma-3 (Homo sapiens) (UniProt Q9Y6M4); conditions: Compound concentration 1000.0 nM
[10] = biological target: Tyrosine-protein kinase ITK/TSK (Homo sapiens) (UniProt Q08881); conditions: Compound concentration 1000.0 nM
[11] = biological target: Serine/threonine-protein kinase NLK (Homo sapiens) (UniProt Q9UBE8); conditions: Compound concentration 1000.0 nM
[12] = biological target: Mitogen-activated protein kinase 9 (Homo sapiens) (UniProt P45984); conditions: Compound concentration 1000.0 nM
Chain of Mitogen-activated protein kinase 9 (Homo sapiens) (P45984 whole entry, looked up): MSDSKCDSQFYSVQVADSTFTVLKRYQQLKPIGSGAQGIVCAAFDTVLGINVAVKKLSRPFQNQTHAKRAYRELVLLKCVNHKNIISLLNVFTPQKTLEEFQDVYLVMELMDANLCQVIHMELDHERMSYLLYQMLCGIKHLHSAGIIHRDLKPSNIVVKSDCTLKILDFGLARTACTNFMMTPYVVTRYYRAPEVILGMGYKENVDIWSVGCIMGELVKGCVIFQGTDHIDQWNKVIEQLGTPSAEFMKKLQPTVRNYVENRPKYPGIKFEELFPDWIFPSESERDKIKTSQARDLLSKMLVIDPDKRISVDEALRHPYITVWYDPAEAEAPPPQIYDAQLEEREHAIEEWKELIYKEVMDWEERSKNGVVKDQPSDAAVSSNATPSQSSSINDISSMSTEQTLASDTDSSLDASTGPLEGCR

[13] = biological target: Platelet-derived growth factor receptor alpha (Homo sapiens) (UniProt P16234); conditions: Compound concentration 1000.0 nM
[14] = biological target: Serine/threonine-protein kinase pim-3 (Homo sapiens) (UniProt Q86V86); conditions: Compound concentration 1000.0 nM
[15] = biological target: Interferon-induced, double-stranded RNA-activated protein kinase (Homo sapiens) (UniProt P19525); conditions: Compound concentration 1000.0 nM
[16] = biological target: Serine/threonine-protein kinase WNK2 (Homo sapiens) (UniProt Q9Y3S1); conditions: Compound concentration 1000.0 nM
[17] = biological target: Cyclin-dependent kinase 15 (Homo sapiens) (UniProt Q96Q40); conditions: Compound concentration 1000.0 nM
Chain of Cyclin-dependent kinase 15 (Homo sapiens) (Q96Q40 whole entry): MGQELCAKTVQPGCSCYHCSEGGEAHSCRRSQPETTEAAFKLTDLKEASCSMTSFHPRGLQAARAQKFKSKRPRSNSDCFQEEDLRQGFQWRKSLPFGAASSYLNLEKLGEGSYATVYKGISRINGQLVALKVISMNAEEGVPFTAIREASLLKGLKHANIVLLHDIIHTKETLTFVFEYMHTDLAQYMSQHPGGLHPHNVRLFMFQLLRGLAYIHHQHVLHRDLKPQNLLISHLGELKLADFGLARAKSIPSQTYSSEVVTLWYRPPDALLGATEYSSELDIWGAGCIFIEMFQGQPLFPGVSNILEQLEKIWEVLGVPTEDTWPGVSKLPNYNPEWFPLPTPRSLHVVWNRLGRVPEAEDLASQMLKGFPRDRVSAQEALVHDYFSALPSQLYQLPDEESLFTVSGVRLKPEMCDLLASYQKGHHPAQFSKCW

[18] = biological target: Eukaryotic translation initiation factor 2-alpha kinase 1 (Homo sapiens) (UniProt Q9BQI3); conditions: Compound concentration 1000.0 nM
[19] = biological target: Serine/threonine-protein kinase PAK 5 (Homo sapiens) (UniProt Q9P286); conditions: Compound concentration 1000.0 nM
[20] = biological target: Serine/threonine-protein kinase Chk1 (Homo sapiens) (UniProt O14757); conditions: Compound concentration 1000.0 nM
[21] = biological target: Serine/threonine-protein kinase 10 (Homo sapiens) (UniProt O94804); conditions: Compound concentration 1000.0 nM
[22] = biological target: Serine/threonine-protein kinase OSR1 (Homo sapiens) (UniProt O95747); conditions: Compound concentration 1000.0 nM
[23] = biological target: Interleukin-1 receptor-associated kinase 3 (Homo sapiens) (UniProt Q9Y616); conditions: Compound concentration 1000.0 nM
[24] = system: Receptor-type tyrosine-protein kinase FLT3 (Homo sapiens), P36888 [D835V]; conditions: Compound concentration 1000.0 nM
[25] = biological target: STE20/SPS1-related proline-alanine-rich protein kinase (Homo sapiens) (UniProt Q9UEW8); conditions: Compound concentration 1000.0 nM
[26] = biological target: Homeodomain-interacting protein kinase 1 (Homo sapiens) (UniProt Q86Z02); conditions: Compound concentration 1000.0 nM
[27] = system: Mast/stem cell growth factor receptor Kit (Homo sapiens), P10721 [V559D,T670I]; conditions: Compound concentration 1000.0 nM
[28] = biological target: Mitogen-activated protein kinase kinase kinase 15 (Homo sapiens) (UniProt Q6ZN16); conditions: Compound concentration 1000.0 nM
Chain of Mitogen-activated protein kinase kinase kinase 15 (Homo sapiens) (Q6ZN16 whole entry): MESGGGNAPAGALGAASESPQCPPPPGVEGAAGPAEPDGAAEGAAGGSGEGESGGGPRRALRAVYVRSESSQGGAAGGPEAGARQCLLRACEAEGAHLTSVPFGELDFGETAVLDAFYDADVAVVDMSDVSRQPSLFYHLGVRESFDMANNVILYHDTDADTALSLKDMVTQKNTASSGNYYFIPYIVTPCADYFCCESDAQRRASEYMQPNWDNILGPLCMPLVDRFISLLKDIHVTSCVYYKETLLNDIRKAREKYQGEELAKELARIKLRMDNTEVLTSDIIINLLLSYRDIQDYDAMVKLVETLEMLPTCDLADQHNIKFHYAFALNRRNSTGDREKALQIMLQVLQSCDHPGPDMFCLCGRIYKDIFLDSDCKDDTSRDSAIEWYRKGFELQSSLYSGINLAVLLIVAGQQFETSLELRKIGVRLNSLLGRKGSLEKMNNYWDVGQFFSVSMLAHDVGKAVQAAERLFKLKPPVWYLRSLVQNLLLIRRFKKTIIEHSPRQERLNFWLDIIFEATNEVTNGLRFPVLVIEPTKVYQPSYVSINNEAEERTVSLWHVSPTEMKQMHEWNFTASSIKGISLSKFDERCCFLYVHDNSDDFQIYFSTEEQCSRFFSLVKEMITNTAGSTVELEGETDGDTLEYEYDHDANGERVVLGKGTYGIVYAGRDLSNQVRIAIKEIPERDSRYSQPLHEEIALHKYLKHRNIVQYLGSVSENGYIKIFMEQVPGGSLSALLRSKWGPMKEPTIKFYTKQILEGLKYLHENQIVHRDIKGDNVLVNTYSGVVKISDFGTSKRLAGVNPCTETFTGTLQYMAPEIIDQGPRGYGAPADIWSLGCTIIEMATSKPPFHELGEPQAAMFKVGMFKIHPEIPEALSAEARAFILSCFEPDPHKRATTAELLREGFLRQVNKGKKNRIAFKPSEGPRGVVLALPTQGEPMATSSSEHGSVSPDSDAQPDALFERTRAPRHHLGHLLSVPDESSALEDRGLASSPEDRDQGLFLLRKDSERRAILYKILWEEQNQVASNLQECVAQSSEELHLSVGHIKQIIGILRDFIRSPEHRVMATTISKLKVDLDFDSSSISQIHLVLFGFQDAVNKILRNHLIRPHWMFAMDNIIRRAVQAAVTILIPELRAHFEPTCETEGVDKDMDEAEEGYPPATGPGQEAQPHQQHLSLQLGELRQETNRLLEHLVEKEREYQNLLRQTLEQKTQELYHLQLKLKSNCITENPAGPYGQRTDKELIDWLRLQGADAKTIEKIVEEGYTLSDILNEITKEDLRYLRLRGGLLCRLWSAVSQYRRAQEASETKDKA

[29] = biological target: Tyrosine-protein kinase FRK (Homo sapiens) (UniProt P42685); conditions: Compound concentration 1000.0 nM
[30] = biological target: Serine/threonine-protein kinase MAK (Homo sapiens) (UniProt P20794); conditions: Compound concentration 1000.0 nM
[31] = system: Phosphatidylinositol 4,5-bisphosphate 3-kinase catalytic subunit alpha isoform (Homo sapiens), P42336 [E545K]; conditions: Compound concentration 1000.0 nM
[32] = biological target: 5-hydroxytryptamine receptor 2A (Homo sapiens, UniProt P28223); conditions: Compound concentration 10.0 uM
Chain of 5-hydroxytryptamine receptor 2A (P28223 whole entry): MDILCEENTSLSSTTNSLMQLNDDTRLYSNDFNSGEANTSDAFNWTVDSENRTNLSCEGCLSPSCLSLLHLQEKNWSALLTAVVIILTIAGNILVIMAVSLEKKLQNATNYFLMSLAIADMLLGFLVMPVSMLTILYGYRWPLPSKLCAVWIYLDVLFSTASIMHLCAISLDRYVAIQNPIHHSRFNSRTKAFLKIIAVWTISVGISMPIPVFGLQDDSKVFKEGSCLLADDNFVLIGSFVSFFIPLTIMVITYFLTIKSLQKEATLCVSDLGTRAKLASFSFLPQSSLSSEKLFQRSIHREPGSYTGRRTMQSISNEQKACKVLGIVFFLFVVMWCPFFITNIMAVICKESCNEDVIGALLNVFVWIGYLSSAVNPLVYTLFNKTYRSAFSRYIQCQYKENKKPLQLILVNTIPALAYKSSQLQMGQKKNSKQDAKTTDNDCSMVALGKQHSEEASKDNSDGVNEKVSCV

[33] = biological target: Phosphatidylinositol 4-kinase beta (Homo sapiens) (UniProt Q9UBF8); conditions: Compound concentration 1000.0 nM
[34] = biological target: Ephrin type-B receptor 1 (Homo sapiens) (UniProt P54762); conditions: Compound concentration 1000.0 nM
[35] = biological target: Calcium/calmodulin-dependent protein kinase kinase 2 (Homo sapiens) (UniProt Q96RR4); conditions: Compound concentration 1000.0 nM
[36] = biological target: Atypical kinase COQ8A, mitochondrial (Homo sapiens) (UniProt Q8NI60); conditions: Compound concentration 1000.0 nM
[37] = biological target: Serine/threonine-protein kinase ICK (Homo sapiens) (UniProt Q9UPZ9); conditions: Compound concentration 1000.0 nM
[38] = biological target: Serine/threonine-protein kinase LATS1 (Homo sapiens) (UniProt O95835); conditions: Compound concentration 1000.0 nM
[39] = biological target: Serine/threonine-protein kinase DCLK1 (Homo sapiens) (UniProt O15075); conditions: Compound concentration 1000.0 nM
[40] = biological target: Serine/threonine-protein kinase PknB (Mycobacterium tuberculosis) (UniProt P9WI81); conditions: Compound concentration 1000.0 nM
[41] = biological target: Mitogen-activated protein kinase kinase kinase kinase 2 (Homo sapiens) (UniProt Q12851); conditions: Compound concentration 1000.0 nM
Chain of Mitogen-activated protein kinase kinase kinase kinase 2 (Homo sapiens) (Q12851 whole entry): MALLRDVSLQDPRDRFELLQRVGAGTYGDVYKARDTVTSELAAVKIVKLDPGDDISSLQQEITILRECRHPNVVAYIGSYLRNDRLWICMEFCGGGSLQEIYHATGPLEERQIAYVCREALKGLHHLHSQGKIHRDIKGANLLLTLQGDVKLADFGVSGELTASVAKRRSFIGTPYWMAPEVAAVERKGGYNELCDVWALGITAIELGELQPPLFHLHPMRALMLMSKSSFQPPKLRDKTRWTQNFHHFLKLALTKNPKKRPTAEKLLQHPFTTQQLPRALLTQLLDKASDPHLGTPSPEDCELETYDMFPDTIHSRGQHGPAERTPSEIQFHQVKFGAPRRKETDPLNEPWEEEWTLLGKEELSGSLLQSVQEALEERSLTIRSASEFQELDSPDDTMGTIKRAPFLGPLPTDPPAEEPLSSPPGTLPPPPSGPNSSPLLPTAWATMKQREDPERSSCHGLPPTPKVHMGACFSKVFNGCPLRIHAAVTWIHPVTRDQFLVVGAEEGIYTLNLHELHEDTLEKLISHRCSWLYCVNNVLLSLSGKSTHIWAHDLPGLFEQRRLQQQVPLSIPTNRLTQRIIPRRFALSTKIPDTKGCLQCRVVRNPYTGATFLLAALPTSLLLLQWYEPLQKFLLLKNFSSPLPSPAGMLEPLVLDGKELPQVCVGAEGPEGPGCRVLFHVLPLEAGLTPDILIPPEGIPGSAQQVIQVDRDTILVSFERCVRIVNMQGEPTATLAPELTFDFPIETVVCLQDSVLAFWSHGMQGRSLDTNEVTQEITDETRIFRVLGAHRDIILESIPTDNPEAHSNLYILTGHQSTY

[42] = biological target: Ribosomal protein S6 kinase alpha-4 (Homo sapiens) (UniProt O75676); conditions: Compound concentration 1000.0 nM
[43] = biological target: Proto-oncogene tyrosine-protein kinase Src (Homo sapiens) (UniProt P12931); conditions: Compound concentration 1000.0 nM
[44] = biological target: Serine/threonine-protein kinase 38 (Homo sapiens) (UniProt Q15208); conditions: Compound concentration 1000.0 nM
[45] = biological target: Serine/threonine-protein kinase D3 (Homo sapiens) (UniProt O94806); conditions: Compound concentration 1000.0 nM

Chain of Non-receptor tyrosine-protein kinase TYK2 (Homo sapiens) (P29597 whole entry): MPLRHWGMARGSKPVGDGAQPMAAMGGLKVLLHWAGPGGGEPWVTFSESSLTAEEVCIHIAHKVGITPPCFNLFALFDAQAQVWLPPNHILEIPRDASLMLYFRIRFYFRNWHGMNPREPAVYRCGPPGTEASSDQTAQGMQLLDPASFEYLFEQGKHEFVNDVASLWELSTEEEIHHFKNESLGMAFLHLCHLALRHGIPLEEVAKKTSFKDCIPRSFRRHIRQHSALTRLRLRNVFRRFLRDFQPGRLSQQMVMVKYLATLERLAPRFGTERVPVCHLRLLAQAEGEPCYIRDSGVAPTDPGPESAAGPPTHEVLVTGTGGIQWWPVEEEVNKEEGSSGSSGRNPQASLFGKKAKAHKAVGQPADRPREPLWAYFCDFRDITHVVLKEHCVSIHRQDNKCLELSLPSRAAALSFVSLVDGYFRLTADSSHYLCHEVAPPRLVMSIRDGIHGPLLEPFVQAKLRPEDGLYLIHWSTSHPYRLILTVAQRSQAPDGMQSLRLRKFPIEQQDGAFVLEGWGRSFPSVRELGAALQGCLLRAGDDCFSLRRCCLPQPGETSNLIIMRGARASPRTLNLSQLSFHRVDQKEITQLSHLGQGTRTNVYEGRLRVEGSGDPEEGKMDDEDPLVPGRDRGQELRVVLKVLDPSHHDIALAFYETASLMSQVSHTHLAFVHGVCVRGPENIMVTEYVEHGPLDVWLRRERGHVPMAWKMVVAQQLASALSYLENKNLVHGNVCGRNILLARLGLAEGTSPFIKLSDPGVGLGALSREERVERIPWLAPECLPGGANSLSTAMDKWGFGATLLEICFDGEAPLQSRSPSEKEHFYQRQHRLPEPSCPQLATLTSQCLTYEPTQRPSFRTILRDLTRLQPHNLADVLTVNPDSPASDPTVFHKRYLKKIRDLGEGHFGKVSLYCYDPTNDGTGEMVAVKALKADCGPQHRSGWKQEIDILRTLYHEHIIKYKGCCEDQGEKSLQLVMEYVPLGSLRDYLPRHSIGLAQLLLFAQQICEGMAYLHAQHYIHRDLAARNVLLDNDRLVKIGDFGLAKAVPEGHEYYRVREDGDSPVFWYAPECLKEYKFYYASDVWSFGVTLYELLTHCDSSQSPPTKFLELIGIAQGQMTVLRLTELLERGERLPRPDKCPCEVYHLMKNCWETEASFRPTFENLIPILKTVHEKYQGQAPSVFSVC
Chain of Cyclin-dependent kinase 9 (Homo sapiens) (P50750 whole entry): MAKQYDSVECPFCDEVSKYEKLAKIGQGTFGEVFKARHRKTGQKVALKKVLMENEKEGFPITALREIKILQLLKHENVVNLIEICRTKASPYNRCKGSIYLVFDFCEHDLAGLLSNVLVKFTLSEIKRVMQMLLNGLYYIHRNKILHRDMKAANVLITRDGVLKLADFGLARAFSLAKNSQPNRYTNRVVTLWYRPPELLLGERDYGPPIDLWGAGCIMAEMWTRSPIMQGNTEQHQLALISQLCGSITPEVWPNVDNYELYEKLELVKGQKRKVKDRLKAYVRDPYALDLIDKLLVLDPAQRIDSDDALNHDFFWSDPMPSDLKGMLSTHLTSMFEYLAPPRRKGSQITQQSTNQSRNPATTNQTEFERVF

O=C(NC[C@@H]1[C@H]2CN(C(=O)OCc3cc(C(F)(F)F)cc(C(F)(F)F)c3)C[C@@H]12)c1ccc2[nH]nnc2c1 [BI 2545]
residual activity [1]: 100% | residual activity [2]: 84% | residual activity [3]: 91% | residual activity [4]: 94% | residual activity [5]: 44% | residual activity [6]: 100% | residual activity [7]: 100% | residual activity [8]: 100% | residual activity [9]: 89% | residual activity [10]: 100% | residual activity [11]: 100% | residual activity [12]: 100% | residual activity [13]: 97% | residual activity [14]: 100% | residual activity [15]: 45% | residual activity [16]: 84% | residual activity [17]: 75% | residual activity [18]: 91% | residual activity [19]: 100% | residual activity [20]: 92% | residual activity [21]: 100% | residual activity [22]: 85% | residual activity [23]: 84% | residual activity [24]: 100% | residual activity [25]: 80% | residual activity [26]: 85% | residual activity [27]: 100% | residual activity [28]: 53% | residual activity [29]: 83% | residual activity [30]: 100% | residual activity [31]: 100% | inhibition [32]: 51.4% | residual activity [33]: 100% | residual activity [34]: 100% | residual activity [35]: 91% | residual activity [36]: 100% | residual activity [37]: 100% | residual activity [38]: 96% | residual activity [39]: 94% | residual activity [40]: 80% | residual activity [41]: 92% | residual activity [42]: 100% | residual activity [43]: 100% | residual activity [44]: 75% | residual activity [45]: 83%

Cc1nccc(COC(=O)N2C[C@@H]3[C@@H](CNC(=O)c4ccc5[nH]nnc5c4)[C@@H]3C2)n1 [BI 3017]
residual activity [1]: 100% | residual activity [2]: 91% | residual activity [3]: 100% | residual activity [4]: 100% | residual activity [5]: 100% | residual activity [6]: 100% | residual activity [7]: 100% | residual activity [8]: 100% | residual activity [9]: 100% | residual activity [10]: 100% | residual activity [11]: 41% | residual activity [12]: 95% | residual activity [13]: 80% | residual activity [14]: 97% | residual activity [15]: 100% | residual activity [16]: 79% | residual activity [17]: 100% | residual activity [18]: 100% | residual activity [19]: 92% | residual activity [20]: 100% | residual activity [21]: 100% | residual activity [22]: 100% | residual activity [23]: 100% | residual activity [24]: 79% | residual activity [25]: 79% | residual activity [26]: 82% | residual activity [27]: 95% | residual activity [28]: 95% | residual activity [29]: 100% | residual activity [30]: 98% | residual activity [31]: 86% | inhibition [32]: 7.65% | residual activity [33]: 97% | residual activity [34]: 95% | residual activity [35]: 100% | residual activity [36]: 84% | residual activity [37]: 100% | residual activity [38]: 89% | residual activity [39]: 90% | residual activity [40]: 100% | residual activity [41]: 84% | residual activity [42]: 100% | residual activity [43]: 100% | residual activity [44]: 100% | residual activity [45]: 100%

Reference: ChEMBL document CHEMBL4507275, “Data for DCP probe BI-2545” (2021)
